Experiments:
Format in all cases: in vivo
[1] = system: Surinam grass (Brachiaria decumbens); assay: Test C preemergence; details: for Plant response rating, Surinam grass: scale 0 to 100, 0 no effect, 100 complete control; for Plant response rating (0 to 100), Surinam grass: visual evaluation after 12 to 14 days
Text: (§1) Seeds of plant species selected from bermudagrass (Cynodon dactylon), Surinam grass (Brachiaria decumbens), cocklebur (Xanthium strumarium), corn (Zea mays), crabgrass (Digitaria sanguinalis), woolly cupgrass (Eriochloa villosa), giant foxtail (Setaria faberii), goosegrass (Eleusine indica), johnsongrass (Sorghum halepense), kochia (Kochia scoparia), lambsquarters (Chenopodium album), morningglory (Ipomoea hederacea), yellow nutsedge (Cyperus esculentus), pigweed (Amaranthus retroflexus), common ragweed (Ambrosia elatior), soybean (Glycine max) and velvetleaf (Abutilon theophrasti) were planted and treated preemergence with test chemicals formulated in a non-phytotoxic solvent mixture which included a surfactant.
(§2) At the same time, plants selected from these crop and weed species and also winter barley (Hordeum vulgare), blackgrass (Alopecurus myosuroides), canary grass (Phalaris minor), chickweed (Stellaria media), downy brome (Bromus tectorum), green foxtail (Setaria viridis), Italian ryegrass (Lolium multiflorum), wheat (Triticum aestivum), wild oat (Avena fatua) and windgrass (Apera spica-venti) were treated with postemergence applications of some of the test chemicals formulated in the same manner. Plants ranged in height from 2 to 18 cm (1- to 4-leaf stage) for postemergence treatments. Plant species in the flooded paddy test consisted of rice (Oryza saliva), smallflower flatsedge (Cyperus difformis), duck salad (Heteranthera limosa) and barnyardgrass (Echinochloa crus-galli) grown to the 2-leaf stage for testing. Treated plants and controls were maintained in a greenhouse for 12 to 14 days, after which time all species were compared to controls and visually evaluated. Plant response ratings, summarized in Table C, are based on a scale of 0 to 100 where 0 is no effect and 100 is complete control. A dash (-) response means no test result.

[2] = system: goosegrass (Eleusine indica); assay: Test C preemergence; details: for Plant response rating, Goosegrass: scale 0 to 100, 0 no effect, 100 complete control; for Plant response rating (0 to 100), Goosegrass: visual evaluation after 12 to 14 days
Text: as §1, §2

[3] = system: velvetleaf (Abutilon theophrasti); assay: Test C preemergence; details: preemergence; for Plant response rating, Velvetleaf: scale 0 to 100, 0 no effect, 100 complete control
Text: as §1, §2

[4] = system: crabgrass (Digitaria sanguinalis); assay: Test C preemergence; details: for Plant response rating, Crabgrass: scale 0 to 100, 0 no effect, 100 complete control; for Plant response rating (0 to 100), Crabgrass: visual evaluation after 12 to 14 days
Text: as §1, §2

[5] = system: cocklebur (Xanthium strumarium); assay: Test C preemergence; details: for Plant response rating, Cocklebur: scale 0 to 100, 0 no effect, 100 complete control; for Plant response rating (0 to 100), Cocklebur: visual evaluation after 12 to 14 days
Text: as §1, §2

[6] = system: giant foxtail (Setaria faberii); assay: Test C preemergence; details: for Plant response rating, Foxtail, Giant: scale 0 to 100, 0 no effect, 100 complete control; for Plant response rating (0 to 100), Foxtail, Giant: visual evaluation after 12 to 14 days
Text: as §1, §2

[7] = system: bermudagrass (Cynodon dactylon); assay: Test C preemergence; details: for Plant response rating, Bermudagrass: scale 0 to 100, 0 no effect, 100 complete control; for Plant response rating (0 to 100 where 0 is no effect and 100 is complete control), Bermudagrass: visual evaluation after 12 to 14 days
Text: as §1, §2

[8] = system: common ragweed (Ambrosia elatior); assay: Test C preemergence; details: preemergence; for Plant response rating, Ragweed, Common: scale 0 to 100, 0 no effect, 100 complete control
Text: as §1, §2

[9] = system: morningglory (Ipomoea hederacea); assay: Test C preemergence; details: for Plant response rating, Morningglory: scale 0 to 100, 0 no effect, 100 complete control
Text: as §1, §2

[10] = system: Surinam grass (Brachiaria decumbens); assay: Test B preemergence
Procedure, shortened: (§3)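 Post-treatment, species sat 13–15 days under greenhouse conditions before visual scoring against controls, 0 (no effect) through 100 (complete control). Application preemergence to sown seeds or postemergence at 1- to 4-leaf stage, using a non-phytotoxic solvent/surfactant formulation.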

[11] = system: barnyardgrass (Echinochloa crus-galli); assay: Test B preemergence
Procedure, shortened: as §3

[12] = system: velvetleaf (Abutilon theophrasti); assay: Test B preemergence
Procedure, shortened: as §3

[13] = system: crabgrass (Digitaria sanguinalis); assay: Test B preemergence
Procedure, shortened: as §3

rice (Oryza saliva) = assay: Test B preemergence
Procedure, shortened: as §3

[14] = system: pigweed (Amaranthus retroflexus); assay: Test B preemergence
Procedure, shortened: as §3

[15] = system: lambsquarters (Chenopodium album); assay: Test B preemergence
Procedure, shortened: as §3

[16] = system: cocklebur (Xanthium strumarium); assay: Test B preemergence
Procedure, shortened: as §3

[17] = system: giant foxtail (Setaria faberii); assay: Test B preemergence
Procedure, shortened: as §3

[18] = system: morning glory (Ipomoea hederacea); assay: Test B preemergence
Procedure, shortened: as §3

corn (Zea mays) = assay: Test B preemergence
Procedure, shortened: as §3

Sunflower = assay: Test C preemergence; details: Rate 500 g/ha, visual evaluation after 12 to 14 days
[19] = Rate 500 g/ha, visual evaluation after 12 to 14 days
[20] = Preemergence, Rate 500 g/ha, scale 0 to 100, 0 no effect, 100 complete control
[21] = preemergence, Rate 125 g/ha, scale of 0 to 100 where 0 is no effect and 100 is complete control, 13 to 15 days

## CCOC(=O)c1cccc(N2CCC(n3ccc(C(C)(C)C)n3)C2=O)c1 (stereo not drawn) [Compound 72]
[1]; Rate 62 g/ha
  Plant response rating, Surinam grass: 0
[1]; preemergence, Rate 250 g/ha
  Plant response rating (0 to 100), Surinam grass: 80
[1]; preemergence, Rate 500 g/ha
  Plant response rating (0 to 100), Surinam grass: 50
[1]; preemergence, Rate 125 g/ha
  Plant response rating, Surinam grass: 30
[2]; Rate 62 g/ha
  Plant response rating, Goosegrass: 20
[2]; preemergence, Rate 250 g/ha
  Plant response rating (0 to 100), Goosegrass: 80
[2]; preemergence, Rate 500 g/ha
  Plant response rating (0 to 100), Goosegrass: 90
[2]; preemergence, Rate 125 g/ha
  Plant response rating, Goosegrass: 70
[3]; [19]
  Plant response rating (0 to 100), Velvetleaf: 40
[3]; Rate 125 g/ha
  Plant response rating, Velvetleaf: 0
[3]; Rate 250 g/ha
  Plant response rating, Velvetleaf: 10
[4]; Rate 62 g/ha
  Plant response rating, Crabgrass: 90
[4]; preemergence, Rate 250 g/ha
  Plant response rating (0 to 100), Crabgrass: 100
[4]; preemergence, Rate 500 g/ha
  Plant response rating (0 to 100), Crabgrass: 100
[4]; preemergence, Rate 125 g/ha
  Plant response rating, Crabgrass: 100
[5]; Rate 62 g/ha
  Plant response rating, Cocklebur: 0
[5]; preemergence, Rate 250 g/ha
  Plant response rating (0 to 100), Cocklebur: 10
[5]; preemergence, Rate 500 g/ha
  Plant response rating (0 to 100), Cocklebur: 70
[5]; preemergence, Rate 125 g/ha
  Plant response rating, Cocklebur: 30
[6]; Rate 62 g/ha
  Plant response rating, Foxtail, Giant: 30
[6]; preemergence, Rate 250 g/ha
  Plant response rating (0 to 100), Foxtail, Giant: 70
[6]; preemergence, Rate 500 g/ha
  Plant response rating (0 to 100), Foxtail, Giant: 90
[6]; preemergence, Rate 125 g/ha
  Plant response rating, Foxtail, Giant: 70
[7]; Rate 62 g/ha
  Plant response rating, Bermudagrass: 0
[7]; preemergence, Rate 250 g/ha
  Plant response rating (0 to 100 where 0 is no effect and 100 is complete control), Bermudagrass: 90
[7]; preemergence, Rate 500 g/ha
  Plant response rating (0 to 100 where 0 is no effect and 100 is complete control), Bermudagrass: 100
[7]; preemergence, Rate 125 g/ha
  Plant response rating, Bermudagrass: 90
[8]; [19]
  Plant response rating (0 to 100), Ragweed, Common: 90
[8]; Rate 125 g/ha
  Plant response rating, Ragweed, Common: 0
[8]; Rate 250 g/ha
  Plant response rating, Ragweed, Common: 70
[9]; Rate 62 g/ha
  Plant response rating, Morningglory: 0
[9]; preemergence, Rate 500 g/ha, visual evaluation after 12 to 14 days
  Plant response rating (0 to 100), Morningglory: 100
[9]; preemergence, Rate 125 g/ha
  Plant response rating, Morningglory: 30
[9]; preemergence, Rate 250 g/ha
  Plant response rating, Morningglory: 10
[10]; [20]
  Plant response rating, Surinam grass: 70
[10]; [21]
  Plant response rating, Surinam grass: 0
[11]; [20]
  Plant response rating, Barnyardgrass: 100
[11]; [21]
  Plant response rating, Barnyardgrass: 100
[12]; [20]
  Plant response rating, Velvetleaf: 90
[12]; [21]
  Plant response rating, Velvetleaf: 0
[13]; [20]
  Plant response rating, Crabgrass: 100
[13]; [21]
  Plant response rating, Crabgrass: 100
Rice (Oryza saliva); [20]
  Plant response rating, Rice: 0
Rice (Oryza saliva); [21]
  Plant response rating, Rice: 0
[14]; [20]
  Plant response rating, Pigweed: 100
[14]; [21]
  Plant response rating, Pigweed: 100
[15]; [20]
  Plant response rating, Lambsquarters: 100
[15]; [21]
  Plant response rating, Lambsquarters: 100
[16]; [20]
  Plant response rating, Cocklebur: 60
[16]; [21]
  Plant response rating, Cocklebur: 0
[17]; [20]
  Plant response rating, Foxtail, Giant: 100
[17]; [21]
  Plant response rating, Foxtail, Giant: 100
[18]; [20]
  Plant response rating, Morningglory: 90
[18]; [21]
  Plant response rating, Morningglory: 0
Corn (Zea mays); [20]
  Plant response rating, Corn: 0
Corn (Zea mays); [21]
  Plant response rating, Corn: 0
Sunflower
  Plant response rating (0 to 100), Sunflower: 60
